# Experimental data reported in US20240115711A1, “Novel Bifunctional Molecules For Targeted Protein Degradation” (Amphista Therapeutics Limited, priority 2020, published 2024).
# Molecular target: T1, mutant EGFR (L858R) (Homo sapiens, UniProt P00533, L858R/T790M)
# T1 construct: endogenous in cells; host or cells: NCI-H1975
# Assay: Assay 8 - Degradation of mutant EGFR by immunoblot (NCI-H1975 cells)
# Type: cell-based
# Details: after 24 h treatment with 1000 nM
# Description: 1.8 Assay 8—Degradation of Mutant EGFR by Immunoblot.
# NCI-H1975 (1.5×10^5) cells were seeded in 12-well plates (1 mL medium) overnight prior to 24 h treatment with test compounds at the desired concentration (DMSO final concentration 0.1%). After 24 h incubation, cells were washed with PBS and lysed with RIPA buffer (Sigma) supplemented with 1× protease inhibitor cocktail (Roche) and 1 U/mL Benzonase (Merck). Lysates were clarified by centrifugation (17,000×g, 20 min, 4° C.) and the total protein content of the supernatant was quantified using a BCA assay. Samples were prepared using equal amounts of total protein and LDS sample buffer (Invitrogen). […] Blots were visualised using a Bio-Rad ChemiDoc MP Imaging System, and band quantification was performed using Image Studio software (LiCor). […] Degradation data was plotted and analysed using Prism (Graphpad, version 8).
# The degradation of target protein mutant EGFR (L858R) was detected according to the procedure outlined in assay 8 for the compound A67.
# T1 sequence (P00533 25-1210 T790M/L858R): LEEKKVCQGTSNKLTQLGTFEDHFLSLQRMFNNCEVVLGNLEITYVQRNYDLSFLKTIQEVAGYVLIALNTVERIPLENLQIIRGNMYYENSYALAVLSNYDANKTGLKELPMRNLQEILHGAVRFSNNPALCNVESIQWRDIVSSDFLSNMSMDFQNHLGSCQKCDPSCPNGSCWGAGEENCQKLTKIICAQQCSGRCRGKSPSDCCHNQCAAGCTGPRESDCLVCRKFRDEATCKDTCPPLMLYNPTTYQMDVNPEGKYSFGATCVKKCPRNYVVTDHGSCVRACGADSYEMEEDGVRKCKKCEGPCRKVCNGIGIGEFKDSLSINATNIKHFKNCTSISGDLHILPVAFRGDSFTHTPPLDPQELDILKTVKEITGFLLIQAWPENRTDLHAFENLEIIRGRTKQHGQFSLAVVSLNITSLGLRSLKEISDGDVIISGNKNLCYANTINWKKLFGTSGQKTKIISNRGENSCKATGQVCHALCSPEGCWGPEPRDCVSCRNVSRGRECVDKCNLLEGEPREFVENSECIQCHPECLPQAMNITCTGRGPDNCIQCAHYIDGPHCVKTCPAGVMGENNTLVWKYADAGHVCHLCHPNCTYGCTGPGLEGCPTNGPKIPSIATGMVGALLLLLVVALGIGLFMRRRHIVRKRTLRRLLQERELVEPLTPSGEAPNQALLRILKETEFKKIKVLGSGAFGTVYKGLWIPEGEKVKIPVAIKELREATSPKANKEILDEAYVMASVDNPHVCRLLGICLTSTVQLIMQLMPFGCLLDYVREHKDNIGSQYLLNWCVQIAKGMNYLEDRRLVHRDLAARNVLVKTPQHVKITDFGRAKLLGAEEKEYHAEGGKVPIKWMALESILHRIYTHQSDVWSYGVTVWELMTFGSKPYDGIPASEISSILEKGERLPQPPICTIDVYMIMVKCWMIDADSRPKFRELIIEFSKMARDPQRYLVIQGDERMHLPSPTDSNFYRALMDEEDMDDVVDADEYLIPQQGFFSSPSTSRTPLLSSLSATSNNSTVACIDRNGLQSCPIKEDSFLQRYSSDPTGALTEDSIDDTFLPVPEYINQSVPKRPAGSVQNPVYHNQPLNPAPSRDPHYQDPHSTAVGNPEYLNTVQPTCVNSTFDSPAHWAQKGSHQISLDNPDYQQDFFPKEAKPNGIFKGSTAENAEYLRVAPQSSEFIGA
smiles,measurement,value
"CCCC(c1ccc(CCC(=O)NCCCN2CCN(CCCNC(=O)c3nn(C(C)C)c4cc(Nc5ccnc(N6CCC(OC)CC6)n5)ncc34)CC2)cc1)N(C)C(=O)/C(C#N)=C/c1nccs1 (stereo not shown) [Example A67, (E)-N-(3-(4-(3-(3-(4-(1-(2-cyano-N-methyl-3-(thiazol-2-yl)acrylamido)butyl)phenyl)propanamido)propyl)piperazin-1-yl)propyl)-1-isopropyl-6-((2-(4-methoxypiperidin-1-yl)pyrimidin-4-yl)amino)-1H-pyrazolo[4,3-c]pyridine-3-carboxamide]",residual EGFR (L858R) abundance,less than 50%
